Measurements published in ChEMBL document CHEMBL1909046, “DrugMatrix in vitro pharmacology data”.

How the values were obtained:
B2 bradykinin receptor = target: T1, B2 bradykinin receptor (Homo sapiens, UniProt P30411); type: cell membranes, Membrane; conditions: chem-1; further: in other assays of this panel Not Active means under 50% inhibition at 10 µM
T1 sequence (P30411 whole entry): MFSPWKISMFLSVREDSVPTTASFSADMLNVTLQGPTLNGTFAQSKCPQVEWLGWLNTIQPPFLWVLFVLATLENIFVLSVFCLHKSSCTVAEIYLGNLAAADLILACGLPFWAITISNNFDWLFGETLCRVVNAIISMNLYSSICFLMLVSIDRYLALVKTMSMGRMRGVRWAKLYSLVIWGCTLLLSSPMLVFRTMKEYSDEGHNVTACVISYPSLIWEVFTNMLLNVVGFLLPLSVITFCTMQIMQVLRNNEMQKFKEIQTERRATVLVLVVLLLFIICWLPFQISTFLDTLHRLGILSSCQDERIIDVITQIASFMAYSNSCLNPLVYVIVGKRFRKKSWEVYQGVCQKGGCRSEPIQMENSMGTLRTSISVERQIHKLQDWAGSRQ

[1] = DRUGMATRIX: Calcium Channel Type L, Benzothiazepine radioligand binding (ligand: [3H] Diltiazem); type: cell membranes, Rattus norvegicus, Wistar, Brain, Membrane; conditions: Not Active = under 50% inhibition at 10 µM
[2] = DRUGMATRIX: Tumor Necrosis Factor (TNF), Non-Selective radioligand binding (ligand: [125I] TNF-alpha); type: cell membranes, Membrane; conditions: u-937; Not Active = under 50% inhibition at 10 µM
[3] = target: T2, Cholecystokinin receptor type A (Homo sapiens, UniProt P32238); type: cell membranes, Membrane; conditions: 1321-n1; further: in other assays of this panel Not Active means under 50% inhibition at 10 µM
T2 sequence (P32238 whole entry): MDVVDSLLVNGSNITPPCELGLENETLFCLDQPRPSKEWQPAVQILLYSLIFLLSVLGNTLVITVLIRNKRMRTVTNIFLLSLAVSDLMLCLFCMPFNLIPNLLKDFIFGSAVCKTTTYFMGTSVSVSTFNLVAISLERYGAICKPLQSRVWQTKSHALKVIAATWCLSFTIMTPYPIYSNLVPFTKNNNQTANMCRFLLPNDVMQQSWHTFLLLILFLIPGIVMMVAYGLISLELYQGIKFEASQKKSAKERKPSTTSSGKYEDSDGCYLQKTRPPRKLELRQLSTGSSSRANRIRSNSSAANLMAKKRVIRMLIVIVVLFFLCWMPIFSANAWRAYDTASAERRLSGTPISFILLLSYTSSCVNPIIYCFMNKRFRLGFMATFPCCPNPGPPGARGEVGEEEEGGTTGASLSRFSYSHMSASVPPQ

Leukotriene C4 synthase = target: T3, Leukotriene C4 synthase (Cavia porcellus, UniProt A6XA80); assay: biochemical; type: tissue-based, Lung;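 further: enzyme inhibition assay of leukotriene C4 synthase, using LTA4 as the substrate; in other assays of this panel Not Active means under 50% inhibition at 10 µM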
T3 sequence (A6XA80 whole entry): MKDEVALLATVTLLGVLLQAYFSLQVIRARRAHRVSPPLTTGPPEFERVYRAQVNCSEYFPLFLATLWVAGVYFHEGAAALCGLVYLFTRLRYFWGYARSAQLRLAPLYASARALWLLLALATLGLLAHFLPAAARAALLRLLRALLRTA

[4] = target: T4, Cysteinyl leukotriene receptor 1 (Homo sapiens, UniProt Q9Y271); type: cell membranes, CHO-K1, Membrane; conditions: cho-k1; further: in other assays of this panel Not Active means under 50% inhibition at 10 µM
T4 sequence (Q9Y271 whole entry): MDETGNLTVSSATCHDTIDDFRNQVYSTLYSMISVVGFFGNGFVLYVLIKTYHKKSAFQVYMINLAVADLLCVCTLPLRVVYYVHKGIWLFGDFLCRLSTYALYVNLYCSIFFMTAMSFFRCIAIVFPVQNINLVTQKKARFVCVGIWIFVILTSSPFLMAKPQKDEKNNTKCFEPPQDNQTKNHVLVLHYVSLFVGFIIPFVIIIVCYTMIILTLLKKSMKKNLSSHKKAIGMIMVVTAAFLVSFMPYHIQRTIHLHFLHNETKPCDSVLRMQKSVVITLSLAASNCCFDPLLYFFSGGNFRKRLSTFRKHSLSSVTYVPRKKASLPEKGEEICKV

[5] = target: T5, Neuropeptide Y receptor type 2 (Homo sapiens, UniProt P49146); type: cell membranes, Membrane; conditions: kan-ts; further: in other assays of this panel Not Active means under 50% inhibition at 10 µM
T5 sequence (P49146 whole entry): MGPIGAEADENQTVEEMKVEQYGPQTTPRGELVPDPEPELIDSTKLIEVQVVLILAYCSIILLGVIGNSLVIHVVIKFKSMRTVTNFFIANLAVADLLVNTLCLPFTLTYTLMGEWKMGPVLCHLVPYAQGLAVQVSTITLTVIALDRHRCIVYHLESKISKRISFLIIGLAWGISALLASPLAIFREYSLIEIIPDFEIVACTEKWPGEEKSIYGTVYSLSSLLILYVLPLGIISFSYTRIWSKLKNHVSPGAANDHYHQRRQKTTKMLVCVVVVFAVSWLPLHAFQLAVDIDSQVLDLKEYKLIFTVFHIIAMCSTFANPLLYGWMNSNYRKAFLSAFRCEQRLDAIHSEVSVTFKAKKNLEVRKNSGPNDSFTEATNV

[6] = target: Voltage-gated inwardly rectifying potassium channel KCNH2 (Homo sapiens, UniProt Q12809); conditions: hek293; further: in other assays of this panel Not Active means under 50% inhibition at 10 µM
Voltage-gated inwardly rectifying potassium channel KCNH2, sequence (Q12809 whole entry): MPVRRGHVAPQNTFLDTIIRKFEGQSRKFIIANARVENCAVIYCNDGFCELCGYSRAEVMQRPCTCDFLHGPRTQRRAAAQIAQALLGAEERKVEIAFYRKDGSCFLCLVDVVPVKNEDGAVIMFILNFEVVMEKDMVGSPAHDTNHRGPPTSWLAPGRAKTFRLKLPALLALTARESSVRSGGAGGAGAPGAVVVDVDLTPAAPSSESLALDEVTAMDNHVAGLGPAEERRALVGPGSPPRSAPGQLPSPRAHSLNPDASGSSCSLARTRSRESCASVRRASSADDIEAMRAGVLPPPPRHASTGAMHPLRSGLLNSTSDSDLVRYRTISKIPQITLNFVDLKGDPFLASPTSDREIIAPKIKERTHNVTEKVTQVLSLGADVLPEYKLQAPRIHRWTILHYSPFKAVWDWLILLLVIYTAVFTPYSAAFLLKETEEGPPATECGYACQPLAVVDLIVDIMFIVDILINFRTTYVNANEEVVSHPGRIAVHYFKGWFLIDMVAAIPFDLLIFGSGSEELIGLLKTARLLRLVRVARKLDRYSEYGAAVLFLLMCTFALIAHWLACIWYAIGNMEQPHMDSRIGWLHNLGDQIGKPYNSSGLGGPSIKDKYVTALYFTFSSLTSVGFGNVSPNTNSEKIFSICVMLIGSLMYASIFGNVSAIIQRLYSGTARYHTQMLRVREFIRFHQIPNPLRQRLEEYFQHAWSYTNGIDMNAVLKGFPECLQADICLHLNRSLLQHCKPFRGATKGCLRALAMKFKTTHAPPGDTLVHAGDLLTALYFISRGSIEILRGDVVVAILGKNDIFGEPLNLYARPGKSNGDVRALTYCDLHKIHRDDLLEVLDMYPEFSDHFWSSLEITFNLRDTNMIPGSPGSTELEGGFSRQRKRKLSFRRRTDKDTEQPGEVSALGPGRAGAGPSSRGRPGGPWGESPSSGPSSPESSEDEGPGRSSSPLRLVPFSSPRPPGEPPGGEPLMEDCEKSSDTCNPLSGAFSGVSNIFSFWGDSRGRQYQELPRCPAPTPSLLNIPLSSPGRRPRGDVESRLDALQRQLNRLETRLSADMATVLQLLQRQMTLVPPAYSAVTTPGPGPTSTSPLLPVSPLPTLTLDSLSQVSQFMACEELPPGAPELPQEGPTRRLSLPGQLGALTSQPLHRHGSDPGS

Nc1nc(F)nc2c1ncn2[C@@H]1O[C@H](CO)[C@@H](O)[C@@H]1O [FLUDARABINE]
Not Active: IC50 (B2 bradykinin receptor) | IC50 [1] | Ki [1] | IC50 [2] | Ki [2] | IC50 [3] | IC50 (Leukotriene C4 synthase) | IC50 [4] | IC50 [5] | IC50 [6] | Ki [6]

O=C1CN(/N=C/c2ccc([N+](=O)[O-])o2)C(=O)N1 [NITROFURANTOIN]
Not Active: IC50 (B2 bradykinin receptor) | IC50 [1] | Ki [1] | IC50 [2] | Ki [2] | IC50 [3] | IC50 (Leukotriene C4 synthase) | IC50 [4] | IC50 [5] | IC50 [6] | Ki [6]

CC12CCC(CC1=O)C2(C)C (configuration not stated) [CAMPHOR]
Not Active: IC50 (B2 bradykinin receptor) | IC50 [1] | Ki [1] | IC50 [2] | Ki [2] | IC50 [3] | IC50 (Leukotriene C4 synthase) | IC50 [4] | IC50 [5] | IC50 [6] | Ki [6]

Nc1nc(N)c2nc(CNc3ccc(C(=O)N[C@@H](CCC(=O)O)C(=O)O)cc3)cnc2n1 [AMINOPTERIN]
Not Active: IC50 (B2 bradykinin receptor) | IC50 [1] | Ki [1] | IC50 [2] | Ki [2] | IC50 [3] | IC50 (Leukotriene C4 synthase) | IC50 [4] | IC50 [5] | IC50 [6] | Ki [6]

Cc1c(N)nc([C@H](CC(N)=O)NC[C@H](N)C(N)=O)nc1C(=O)N[C@H](C(=O)N[C@H](C)[C@@H](O)[C@H](C)C(=O)N[C@H](C(=O)NCCc1nc(-c2nc(C(=O)NCCC[S+](C)C)cs2)cs1)[C@@H](C)O)[C@@H](O[C@@H]1O[C@@H](CO)[C@@H](O)[C@H](O)[C@@H]1O[C@H]1O[C@H](CO)[C@@H](O)[C@H](OC(N)=O)[C@@H]1O)c1c[nH]cn1.[Br-] [BLEOMYCIN A2]
Not Active: IC50 (B2 bradykinin receptor) | IC50 [1] | Ki [1] | IC50 [2] | Ki [2] | IC50 [3] | IC50 (Leukotriene C4 synthase) | IC50 [4] | IC50 [5] | IC50 [6] | Ki [6]

OC[C@H]1O[C@@H]2O[C@H]3[C@H](O)[C@@H](O)[C@@H](O[C@H]4[C@H](O)[C@@H](O)[C@@H](O[C@H]5[C@H](O)[C@@H](O)[C@@H](O[C@H]6[C@H](O)[C@@H](O)[C@@H](O[C@H]7[C@H](O)[C@@H](O)[C@@H](O[C@H]1[C@H](O)[C@H]2O)O[C@@H]7CO)O[C@@H]6CO)O[C@@H]5CO)O[C@@H]4CO)O[C@@H]3CO [ALFADEX]
Not Active: IC50 (B2 bradykinin receptor) | IC50 [1] | Ki [1] | IC50 [2] | Ki [2] | IC50 [3] | IC50 (Leukotriene C4 synthase) | IC50 [4] | IC50 [5] | IC50 [6] | Ki [6]

O=C(O)CNCP(=O)(O)O [GLYPHOSATE]
Not Active: IC50 (B2 bradykinin receptor) | IC50 [1] | Ki [1] | IC50 [2] | Ki [2] | IC50 [3] | IC50 (Leukotriene C4 synthase) | IC50 [4] | IC50 [5] | IC50 [6] | Ki [6]

O=C(Nc1ccc(Cl)c(Cl)c1)c1cc(Cl)cc(Cl)c1O [3,3',4',5-TETRACHLOROSALICYLANILIDE]
Not Active: IC50 (B2 bradykinin receptor) | IC50 [1] | Ki [1] | IC50 [2] | Ki [2] | IC50 [3] | IC50 (Leukotriene C4 synthase) | IC50 [4] | IC50 [5] | IC50 [6] | Ki [6]

COC(=O)Nc1nc2ccc(Sc3ccccc3)cc2[nH]1 [FENBENDAZOLE]
Not Active: IC50 (B2 bradykinin receptor) | IC50 [1] | Ki [1] | IC50 [2] | Ki [2] | IC50 [3] | IC50 (Leukotriene C4 synthase) | IC50 [4] | IC50 [5] | IC50 [6] | Ki [6]

Nc1ccc(C(=O)O)c(O)c1 [AMINOSALICYLIC ACID]
Not Active: IC50 (B2 bradykinin receptor) | IC50 [1] | Ki [1] | IC50 [2] | Ki [2] | IC50 [3] | IC50 (Leukotriene C4 synthase) | IC50 [4] | IC50 [5] | IC50 [6] | Ki [6]

COC(=O)C[C@](O)(CCC(C)(C)O)C(=O)O[C@@H]1C(OC)=C[C@]23CCCN2CCc2cc4c(cc2[C@H]13)OCO4 [HARRINGTONINE]
Not Active: IC50 (B2 bradykinin receptor) | IC50 [1] | Ki [1] | IC50 [2] | Ki [2] | IC50 [3] | IC50 (Leukotriene C4 synthase) | IC50 [4] | IC50 [5] | IC50 [6] | Ki [6]

COc1cc(NC(C)CCCN)c2ncccc2c1 (configuration not stated) [PRIMAQUINE]
Not Active: IC50 (B2 bradykinin receptor) | IC50 [1] | Ki [1] | IC50 [2] | Ki [2] | IC50 [3] | IC50 (Leukotriene C4 synthase) | IC50 [4] | IC50 [5] | IC50 [6] | Ki [6]
